Laboratory results taken from patent US5952321A, “Substituted azetidinones as anti-inflammatory and antidegenerative agents” (Merck & Co., Inc., priority 1996, dated 1999).
Like-named read-outs stand apart in the source and are kept apart here.

Target: T1, Human Polymorphonuclear Leukocyte Elastase (Homo sapiens, UniProt P08246)
T1 sequence (P08246 30-267): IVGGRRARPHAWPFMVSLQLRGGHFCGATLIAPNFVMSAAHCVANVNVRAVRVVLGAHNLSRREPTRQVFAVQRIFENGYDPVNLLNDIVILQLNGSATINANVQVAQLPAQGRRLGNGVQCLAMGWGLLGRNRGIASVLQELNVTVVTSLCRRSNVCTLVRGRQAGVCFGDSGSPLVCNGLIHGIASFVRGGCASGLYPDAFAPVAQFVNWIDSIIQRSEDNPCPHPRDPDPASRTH
Assay: Inhibition of human polymorphonuclear leukocyte elastase via hydrolysis of Boc-AAPAN or Boc-AAPVN
Type: biochemical
Details: second order rate constant for inactivation of the enzyme, read-out: Kobs /[I]
Experimental: Enzyme Assays for the Inhibition of Human Polymorphonuclear Leukocyte Elastase Via Hydrolysis of N-t-Boc-alanyl-alanyl-prolylalanine-p-nitroanilide (Boc-AAPAN) or […] (Boc-AAPVN) Reagent:
0.05M TES (N-tris[hydroxymethyl]methyl-2-amino-ethanesulfonic acid) Buffer, pH 7.5.
0.2 mM Boc-AAPAN or Boc-AAPVN.
To prepare substrate, the solid was first dissolved in 10.0 ml DMSO. Buffer at pH 7.5 was then added to a final volume of 100 ml.
Crude extract of human polymorphonuclear leukocytes (PMN) containing elastase activity.
Inhibitors (azetidinones) to be tested dissolved in DMSO just before use.
To 1.0 ml of 0.2 mM Boc-AAPAN in a cuvette, 0.01-0.1 ml of DMSO with or without inhibitor was added. After mixing, a measurement was taken at 410 mμ to detect any spontaneous hydrolysis due to presence of test compound. 0.05 Milliliters of PMN extract was then added and the ΔOD/min at 410 mμ was measured and recorded. Beckman model 35 spectrophotometer was used.
Results in Tables I to III were reported as ID50, effective dosage in micrograms per milliliter (μg/ml) for 50% inhibition of the enzyme activity 2 minutes after zero time.
Results were also expressed as Ki, the micromolar concentration of the inhibitor (μM) giving 50% of the control enzyme activity; or as ^k obs/I which is the second order rate constant in per mole per second for inactivation of the enzyme.
The elastase activity in the crude PMN extract may vary from one preparation to another. A control of each new batch is run, and the volume added in the assay procedure is adjusted according to activity.

Structure (SMILES) | kinact/KI (pH 7.5, Table I) [M⁻¹ s⁻¹] | also measured
CCC[C@@H](NC(=O)N1C(=O)C(CC)(CC)[C@@H]1Oc1ccc(CN2CCSCC2)cc1)c1ccc(C)cc1 [R4+R5=--CH2 CH2 SCH2 CH2 --; R6=H] | 915000 | –
CCC[C@@H](NC(=O)N1C(=O)C(CC)(CC)[C@@H]1Oc1ccc(C(COC)N2CCCC2)cc1)c1ccc(C)cc1 (mixture of isomers) [R4+R5=--CH2 CH2 CH2 CH2 --; R6=CH2 OMe, 3,3-Diethyl-1-[(R)-α-(n-propyl)-4-(methyl)benzylaminocarbonyl]-4-(S)-[4-{1-(RS)-(1-pyrrolidino)-2-methoxyethyl}phenoxy]azetidin-2-one] | 1.7e+06 | –
CCC[C@@H](NC(=O)N1C(=O)C(CC)(CC)[C@@H]1Oc1ccc(CNC(=O)CN(C)C)cc1)c1ccc(C)cc1 [R4=H; R5=COCH2 NMe2; R6=H, (4S)-3,3-Diethyl-1-[(R)-α-(n-propyl)-4-(methyl)benzyl-aminocarbonyl]-4-[(4-((N,N-dimethyl)aminomethylcarbonyl)aminomethyl)phenoxy]azetidin-2-one] | 800000 | –
CCC[C@@H](NC(=O)N1C(=O)C(CC)(CC)[C@@H]1Oc1ccc([C@@H](C)N(C)CCOC)cc1)c1ccc(C)cc1 [R4=Me; R5=CH2 CH2 OMe; R6=(R)--Me, (4S)-3,3-diethyl-4-{(R)-4-[1-((2-methoxyethyl)methylamino)ethyl]phenoxy}-1-[(R)-α-n-propyl-(4-methyl)benzylaminocarbonyl]azetidin-2-one] | 525000 | –
CCC[C@@H](NC(=O)N1C(=O)C(CC)(CC)[C@@H]1Oc1ccc(CN(CC)CCOC)cc1)c1ccc2occc2c1 | – | kinact/KI (pH 7.5, Table III): 1.1e+06 M⁻¹ s⁻¹
CCC[C@@H](NC(=O)N1C(=O)C(CC)(CC)[C@@H]1Oc1ccc(CNC(=O)Cc2ccncc2)cc1)c1ccc(C)cc1 [R4=H; R5=COCH2-4-pyridyl; R6=H, (4S)-3,3-Diethyl-1-[(R)-α-(n-propyl)-4-(methyl)benzylaminocarbonyl]-4-[(4-((4-pyridyl)methylcarbonyl)aminomethyl)phenoxy]azetidin-2-one] | 1.7e+06 | –
CCC[C@@H](NC(=O)N1C(=O)C(CC)(CC)[C@@H]1Oc1ccc(CCCCN(C)Cc2ccccc2)cc1)c1ccc(C)cc1 [R4=Me; R5=Bn; n=4] | – | kinact/KI (pH 7.5, Table II): 640000 M⁻¹ s⁻¹
CCC[C@@H](NC(=O)N1C(=O)C(CC)(CC)[C@@H]1Oc1ccc(CN(CCOC)CCOC)cc1)c1ccc(C)cc1 [R4=CH2 CH2 OMe; R5=CH2 CH2 OMe; R6=H] | 820000 | –
CCC[C@@H](NC(=O)N1C(=O)C(CC)(CC)[C@@H]1Oc1ccc(CN(C)CCN(C)C(=O)N(C)C)cc1)c1ccc(C)cc1 [R4=Me; R5=CH2 CH2 N(Me)CONMe2; R6=H] | 850000 | –
CCC[C@@H](NC(=O)N1C(=O)C(CC)(CC)[C@@H]1Oc1ccc([C@H](C)N(C)CCOC)cc1)c1ccc(C)cc1 [R4=Me; R5=CH2 CH2 OMe; R6=(S)--Me, (4S)-3,3-Diethyl-4-{(S)-4-[1-((2-methoxyethyl)methylamino)ethyl]phenoxy}-1-[(R)-α-n-propyl-(4-methyl)benzylaminocarbonyl]azetidin-2-one] | 515000 | –
CCC[C@@H](NC(=O)N1C(=O)C(CC)(CC)[C@@H]1Oc1ccc(CN(CC)C(C)COC)c(C)c1)c1ccc(C)cc1 (some centres unmarked) | – | kinact/KI (pH 7.5, Table III): 400000 M⁻¹ s⁻¹
CCC[C@@H](NC(=O)N1C(=O)C(CC)(CC)[C@@H]1Oc1ccc(CN(C)C(C)COC)cc1)c1ccc(C)cc1 (some centres unmarked) [R4=Me; R5=CH(Me)CH2 OMe; R6=H] | 1.22e+06 | –
CCC[C@@H](NC(=O)N1C(=O)C(CC)(CC)[C@@H]1Oc1ccc(CNC(=O)NC(C)C)cc1)c1ccc(C)cc1 [R4=H; R5=CONH isoPr; R6=H, (4S)-3,3-Diethyl-1-[(R)-α-(n-propyl)-4-(methyl)benzylaminocarbonyl]-4-[(4-((N-isopropyl)aminocarbonyl)aminomethyl)phenoxy]azetidin-2-one] | 1.1e+06 | –
CCC[C@@H](NC(=O)N1C(=O)C(CC)(CC)[C@@H]1Oc1ccc(CN(C)CCN(C)C(=O)OC)cc1)c1ccc(C)cc1 [R4=Me; R5=CH2 CH2 N(Me)COOMe; R6=H] | 1.1e+06 | –
CCC[C@@H](NC(=O)N1C(=O)C(CC)(CC)[C@@H]1Oc1ccc(C(COC)N(C)CC)cc1)c1ccc2c(c1)OCO2 (mixture of isomers) [3,3-Diethyl-1-[(R)-α-(n-propyl)-(3,4-dioxomethylene)benzylaminocarbonyl]-4-(S)-[4-{1-(RS)-(N-ethyl-N-(methyl)amino)-2-methoxyethyl}phenoxy]azetidin-2-one] | – | kinact/KI (pH 7.5, Table III): 1.65e+06 M⁻¹ s⁻¹
CCC[C@@H](NC(=O)N1C(=O)C(CC)(CC)[C@@H]1Oc1ccc(CN2C(C)CCCC2C)cc1)c1ccc(C)cc1 (some centres unmarked) [R4+R5=--CHMeCH2 CH2 CH2 CHMe--; R6=H] | 1.15e+06 | –
CCC[C@@H](NC(=O)N1C(=O)C(CC)(CC)[C@@H]1Oc1ccc(CN(C)CC2CCCCO2)cc1)c1ccc(C)cc1 (some centres unmarked) | 900000 | –
CCC[C@@H](NC(=O)N1C(=O)C(CC)(CC)[C@@H]1Oc1ccc(CN(CC)CCOC)cc1)c1ccc2c(c1)OCO2 | – | kinact/KI (pH 7.5, Table III): 1.9e+06 M⁻¹ s⁻¹
CCC[C@@H](NC(=O)N1C(=O)C(CC)(CC)[C@@H]1Oc1ccc(CN(CC)CCOC)cc1)c1ccc(C)cc1 [R4=Et; R5=CH2 CH2 OMe; R6=H, (4S)-3,3-Diethyl-1-[(R)-α-n-propyl-(4-methyl)benzyl-aminocarbonyl]-4-[(4-(2-methoxyethyl)ethylamino-methyl)phenoxy]azetidin-2-one] | 565000 | –
CCC[C@@H](NC(=O)N1C(=O)C(CC)(CC)[C@@H]1Oc1ccc(CCN2CCOCC2)cc1)c1ccc(C)cc1 [R4+R5=--CH2 CH2 OCH2 CH2 --; n=2, (4S)-3,3-Diethyl-1-[(R)-α-n-propyl-(4-methyl)benzylaminocarbonyl]-4-[(4-(2-(4-morpholino))ethyl)phenoxy]azetidin-2-one] | – | kinact/KI (pH 7.5, Table II): 600000 M⁻¹ s⁻¹
CCC[C@@H](NC(=O)N1C(=O)C(CC)(CC)[C@@H]1Oc1ccc(CN(CC)C(C)COC)cc1)c1ccc2c(c1)OCO2 (some centres unmarked) | – | kinact/KI (pH 7.5, Table III): 1.6e+06 M⁻¹ s⁻¹
CCC[C@@H](NC(=O)N1C(=O)C(CC)(CC)[C@@H]1Oc1ccc(CN2CCN(C(=O)N(C)C)CC2)cc1)c1ccc2c(c1)OCO2 [(4S)-3,3-Diethyl-1-[(R)-α-n-propyl-3,4-methylenedioxy)benzylaminocarbonyl]-4-[(4-((4-diemthylaminocarbonyl)piperazin-1-yl)methyl)phenoxy]azetidin-2-one] | – | kinact/KI (pH 7.5, Table III): 4e+06 M⁻¹ s⁻¹
CCC[C@@H](NC(=O)N1C(=O)C(CC)(CC)[C@@H]1Oc1ccc(CN(C)C(C)COC)c(Cl)c1)c1ccc(C)cc1 (some centres unmarked) | – | kinact/KI (pH 7.5, Table III): 650000 M⁻¹ s⁻¹

Second part, led by results:

kinact/KI (pH 7.5, Table I) [M⁻¹ s⁻¹] | Structure (SMILES) | also measured
500000 | CCC[C@@H](NC(=O)N1C(=O)C(CC)(CC)[C@@H]1Oc1ccc(CN(CCOC)C(C)C)cc1)c1ccc(C)cc1 [R4=i-Pr; R5=CH2 CH2 OMe; R6=H] | –
675000 | CCC[C@@H](NC(=O)N1C(=O)C(CC)(CC)[C@@H]1Oc1ccc(CN(C)CCSC)cc1)c1ccc(C)cc1 [R4=Me; R5=CH2 CH2 SMe; R6=H] | –
1.28e+06 | CCC[C@@H](NC(=O)N1C(=O)C(CC)(CC)[C@@H]1Oc1ccc(C(COC)N(C)C)cc1)c1ccc(C)cc1 (mixture of isomers) [R4=Me; R5=Me; R6=CH2 OMe, 3,3-Diethyl-1-[(R)-α-(n-propyl)-4-(methyl)benzylaminocarbonyl]-4-(S)-[4-{1-(RS)-(N,N-dimethylamino)-2-methoxyethyl}phenoxy]azetidin-2-one] | –
1.5e+06 | CCC[C@@H](NC(=O)N1C(=O)C(CC)(CC)[C@@H]1Oc1ccc(C(COC)N(C)CCC)cc1)c1ccc(C)cc1 (mixture of isomers) [R4=Me; R5=n-Pr; R6=CH2 OMe, 3,3-Diethyl-1-[(R)-α-(n-propyl)-4-(methyl)benzylaminocarbonyl]-4-(S)-[4-{1-(RS)-(N-(n-propyl)-N-(methyl)amino)-2-methoxyethyl}phenoxy]azetidin-2-one] | –
1.55e+06 | CCC[C@@H](NC(=O)N1C(=O)C(CC)(CC)[C@@H]1Oc1ccc(CN2CCC[C@H]2COC)cc1)c1ccc(C)cc1 | –
1.25e+06 | CCC[C@@H](NC(=O)N1C(=O)C(CC)(CC)[C@@H]1Oc1ccc(CN(C)CCN(C)Cc2ccccc2)cc1)c1ccc(C)cc1 [R4=Me; R5=CH2 CH2 N(Me)Bn; R6=H] | –
1.7e+06 | CCC[C@@H](NC(=O)N1C(=O)C(CC)(CC)[C@@H]1Oc1ccc(CN2CCN(C(=O)c3ccccc3)CC2)cc1)c1ccc(C)cc1 [R4+R5=--CH2 CH2 N(Bz)CH2 CH2 --; R6=H] | –
325000 | CCC[C@@H](NC(=O)N1C(=O)C(CC)(CC)[C@@H]1Oc1ccc(CN)cc1)c1ccc(C)cc1 [R4=H; R5=H; R6=H, (4S)-3,3-Diethyl-1-[(R)-α-(n-propyl)-4-(methyl)benzylaminocarbonyl]-4-[(4-aminomethyl)phenoxy]azetidin-2-one] | –
1.6e+06 | CCC[C@@H](NC(=O)N1C(=O)C(CC)(CC)[C@@H]1Oc1ccc(Cn2ccnc2)cc1)c1ccc(C)cc1 [R4+R5=--CHCHNCH--; R6=H] | –
